Assays:
[1] = test system: monobiotinylated Fab' antibody fragment; assay: Affinity of streptavidin muteins to biotin derivatives, BIAcore system; assay type: binding; settings: CM5 biosensor, 25° C.
Description: The affinity of the streptavidin muteins to biotin derivatives (constants Kon, Koff and KA) was determined in comparison to core streptavidin (wild type streptavidin) using the BIAcore system from the Pharmacia Co. For this the respective streptavidin samples were immobilized on the surface of biosensor chips (CM5 biosensor). The surface loading was selected in such a way that a measurement signal of 500 to 2000 resonance units (rU) was generated. The association kinetics were recorded for 3 min in each case at 25° C. and with 6 concentrations (12.5, 25, 50, 100, 200 and 400 nmol/l ) of a monobiotinylated Fab' antibody fragment. In order to investigate the influence of the reverse binding of the antibody, the dissociation kinetics in the absence and presence of 10 μg/ml core streptavidin were compared. The specificity of the binding was shown by an experiment with the same body in a non-biotinylated form (negative control).
The binding constants were determined for the purified streptavidin muteins as well as for streptavidin muteins cross-linked with a polymer (streptavidin-mutein […] serum albumin conjugates, preparation: EP-A-0 092).

[2] = native polypeptide, non-covalent complex with biotin; cited from earlier work

Substance	KA ([1]; monobiotinylated Fab')	Koff ([1]; monobiotinylated Fab')	t/2 diss ([1]; monobiotinylated Fab', cell prints h) [h]	Kon ([1]; streptavidin sample immobilized, 12.5-400 nmol/l monobiotinylated Fab')	binding affinity to biotin (KA) [2]
wild-type: recombinant core streptavidin (shortened streptavidin), SEQ ID NO.16, produced per WO 93/09144	>10^10 1/mol	<10^−5 1/s	>20	2.2.10^5 1/mol.s	–
avidin: native avidin, amino acid sequence SEQ ID NO.4	–	–	–	–	about 10^15 l/mol
streptavidin: native streptavidin, protein sequence SEQ ID NO.2	–	–	–	–	about 10^15 l/mol
